The test system of experiment [1] is MGC-803. The experiment is described as follows: Induction of cell cycle arrest in human MGC-803 cells assessed as accumulation of cells at G2/M phase at 0.5 uM incubated for 48 hrs by PI staining based flow cytometry analysis. It is filed as functional. In general terms: Flow cytometry measures light scatter and fluorescence of single cells or particles in a stream.

Experiment [2] deals with MGC-803. The experiment is described as follows: Induction of apoptosis in human MGC-803 cells assessed as upregulation of Bax expression at 1 to 4 uM incubated for 24 hrs by Western blot analysis. It is filed as functional, cell-based. Particulars: dose 1-4 µM. (In general: In western blotting, separated proteins are transferred to a membrane and probed.)
In experiment [3] the test system is MGC-803. The experiment is described as follows: Induction of apoptosis in human MGC-803 cells assessed as late apoptotic cells at 2 uM incubated for 48 hrs by Annexin V-FITC/PI staining based flow cytometry analysis (reference value: 0.98%). It is filed as functional.
The test system of experiment [4] is PC-3. The experiment is described as follows: Antiproliferative activity against human PC-3 cells assessed as inhibition of cell growth incubated for 24 to 72 hrs by MTT assay. It is filed as functional, cell-based. Particulars: time 24-72 hrs.
Experiment [5] concerns MGC-803. In words: Antiproliferative activity against human MGC-803 cells assessed as inhibition of cell growth incubated for 24 to 72 hrs by MTT assay. It is filed as functional, cell-based. A general note: Tetrazolium assays rely on reduction of a dye to a coloured formazan, in cell work by metabolically active cells.
The subject of experiment [6] is MGC-803. In words: Downregulation of c-FOS mRNA level in human MGC-803 at 4 uM incubated for 24 hrs by RT-qPCR analysis. The format is functional, cell-based.
The test system of experiment [7] is MGC-803. In words: Downregulation of FABP3 mRNA level in human MGC-803 cells at 4 uM incubated for 24 hrs by RT-qPCR analysis. It is filed as functional, cell-based.
The subject of experiment [8] is MGC-803. The experiment is described as follows: Antiproliferative activity against human MGC-803 cells assessed as inhibition of cell growth incubated for 48 hrs by MTT assay. It is filed as functional, cell-based. The following applies: MGC-803, 48 h.
Experiment [9] concerns MGC-803. The experiment is described as follows: Antiproliferative activity against human MGC-803 cells assessed as inhibition of cell growth incubated for 72 hrs by MTT assay. The format is functional, cell-based. Particulars: MGC-803, 72 h.
Experiment [10] has as its system MGC-803. The experiment is described as follows: Antitumor activity against human MGC-803 cells xenografted in BALB/c mouse assessed as inhibition of tumor growth at 50 mg/kg, IG administered for 14 days. It is filed as functional. The following applies: MGC-803, po, 336 h, time 14 day, read-out: TGI.
For experiment [11], the system named is MGC-803. The experiment is described as follows: Antiproliferative activity against human MGC-803 cells assessed as reduction in clone areas incubated for 48 hrs […]. It is filed as functional, cell-based. Particulars: dose <= 2.0 µM.
Experiment [12] is described as follows: Potency index, ratio of 5-fluorouracil IC50 to test compound IC50 for antiproliferative activity against human MGC-803 cells assessed as inhibition of cell growth incubated for 24 to 72 hrs by MTT assay. It is filed as functional. Particulars: time 24-72 hrs.
Experiment [13] has as its system BGC-823. The experiment is described as follows: Antiproliferative activity against human BGC-823 cells assessed as inhibition of cell growth incubated for 48 hrs by MTT assay. The format is functional, cell-based. The following applies: BGC-823, 48 h.
In experiment [14] the test system is MGC-803. The experiment is described as follows: Downregulation of ACSS2 mRNA level in human MGC-803 cells at 4 uM incubated for 24 hrs by RT-qPCR analysis. The format is functional, cell-based.
In experiment [15] the test system is MGC-803. The experiment is described as follows: Induction of apoptosis in human MGC-803 cells assessed as upregulation of cleaved caspase-3 expression at 1 to 4 uM incubated for 24 hrs by Western blot analysis. It is filed as functional, cell-based. Particulars: dose 1-4 µM.
Experiment [16] relates to MGC-803. The experiment is described as follows: Induction of apoptosis in human MGC-803 cells assessed as viable cells at 4 uM incubated for 48 hrs by Annexin V-FITC/PI staining based flow cytometry analysis (reference value: 93.9%). The format is functional. The following applies: read-out: Activity.

Calls of active or inactive are those of the source. No cut-off for these calls is given here.

The term IC50 denotes the concentration at which inhibition is half-maximal. Consider `C=C1CC[C@@H]2[C@](C)(CO)[C@H](O)CC[C@@]2(C)[C@@H]1/C=C/C1=CC(=C/c2ccc(C)cc2)/NC1=O`, for which the Activity in [1] is 14.5%; in [3], 41.5%; in experiment [5] (time 24-72 hrs) it was “Dose-dependent-effect”; in experiment [11], “Dose-dependent-effect”. Besides, the outcome in experiment [2], in experiment [6], in experiment [7], in [14] and in [15] was Active. In addition, the result in experiment [4] was inactive. Further, the IC50 in experiment [5] was 2.31 µM; in experiment [8], 3.56 µM; in experiment [9], 2.87 µM; in experiment [13], 38 µM. The inhibition in vivo at 50 mg/kg in experiment [10] worked out at 50%. In experiment [12], the “Ratio IC50” value was ~8. In addition, in experiment [16], the viability at 4 µM is 16%.

The values above are taken from ChEMBL document CHEMBL6153084, “The development of α, β-unsaturated lactam-based andrographolide derivatives as anti-gastric cancer agents with the ability of inhibiting the ERK/c-Fos/Jun pathway” (Eur J Med Chem, 2025).
